“Also recorded” adds a separate entry of the source. Where two headings read alike, the source gives them in different places.
Tests used:
[1] = test system: persistent tissue forms of P. vivax and P. ovale; details: persistent tissue forms of P. vivax and P. ovale in man; cited from earlier work
[2] = test system: human red cells; assay: Hemolytic effect on human red cells; type: cell-based
Experimental: Two important toxic effects of PQ were assessed on the two derivatives: the hemolytic effect and the conversion of hemoglobin to methemoglobin.
A+ blood is washed twice in 0.15M phosphatebuffered saline at pH 7.4 containing 20 mM glucose (GPBS), and then resuspended at a concentration of 50% in the same buffer. To this suspension, an equal volume of compound dissolved in GPBS at different concentrations (test), or of GPBS (control) is added. The final hematocrit of the suspension is 25%. After 60 minutes' incubation at 37° C., the concentration of hemoglobin and methemoglobin is determined on the total suspension, and the concentration of hemoglobin present in the supernatant after centrifugation (extracellular hemoglobin) is determined, by the cyanmethemoglobin and benzidine methods (Fairbanks V.F., 1976, in "Fundamentals of Clinical Chemistry, M.W. Tietz Editors, Saunders").

[3] = test system: Plasmodium berghei; assay: Causal prophylactic activity on OF1 mice infected with Plasmodium berghei; type: in vivo, P. berghei (ANKA), in Swiss OF1 mice; details: for ED50 / ED100 / minimal effective dose: Plasmodium berghei, 3 h; for ED50 / ED100 / minimal effective dose / CPD50, fold lower than for PQ: iv; for ED50: read-out: CPD50, causal prophylactic dose curing 50% of the infected and treated animals; for ED100: read-out: ED100, totally curative dose; for minimal effective dose: read-out: Minimal effective dose (MED); for PQ index: ratio CPD50 of PQ/CPD50 of the compound
Experimental: Primaquine and its derivatives are tested in the model of malaria in rodents employing the infection of mice with Plasmodium berghei, the sporozoites originating from infected Anopheles stephensi mosquitoes. This model, developed by Most H., Herman R. & Schoenfeld C. (1967), Am. J. Trop. med. Hyg. 16, 572-575, enables the casual prophylatic (tissue schizonticidal) activity of new therapeutic compounds to be determined.
The procedure used is that derived from Most H. & Montuori W.A. (1975), Am. J. Trop. Med. Hyg. 24, 179-189. It involves the system P. berghei (ANKA)/Anopheles stephensi/Swiss OF1 mice. The ANKA strain of P. b. berghei is maintained cyclically on Anopheles stephensi. The Swiss OF1 strain mouse is especially sensitive to P. b. berghei, which produces an invariably fatal infection.
The legs, wings and abdomen are removed from female mosquitoes (80 to 100 individuals per preparation) and the latter are then homogenized at 4° C. in MEM medium (GIBCO) containing 10% of fetal calf serum using a glass Potter. The sporozoite suspension is then purified from the mosquito debris by two successive centrifugations (2 min at 50 g and 5 min at 200 g) and the collected supernatant is stored at 4° C. After counting in a Petroff-Hausser chamber, the number of parasites is adjusted by dilution with the same cold medium to a density of 2×10^5 sporozoites/ml.
The causal prophylactic activity of the compounds, that is to say the dose enabling 50% of the infected animals to be cured (CPD50) is obtained by analysis of the logits of the response (expressed as a % LTS) as a function of the dose (mg PQ/kg).
A volume of 0.5 ml of the suspension containing 10^5 sporozoites is injected i.v. into female Swiss OF1 mice weighing 20 to 25 g, used for the therapeutic tests. 1.2. Chemotherapeutic treatments
Groups of 20 to 25 mice, infected as described above, are treated with a single intravenous injection of primaquine diphosphate (PQ) or of its two derivatives in hydrochloride form, three hours after inoculation of the sporozoites. The volume injected is adjusted according to the weight of the mouse, on the basis of 0.25 ml for a weight of 25 g. The compounds are diluted in phosphatebuffered saline (PBS), pH 7.0, and the pH is adjusted to 7.0. Infected but untreated mice (5 per group), receive the buffer alone and serve to monitor the infectivity of the sporozoites.
The experimental mice are kept for a period of 50 days. The development of the parasitemia is followed by daily examination of blood smears stained for 60 min with 5% Giemsa in Sorensen buffer at pH 7.2, from day 5 up to day 15. The number of infected animals can thus be determined.
(§1) The animals infected using P. berchei sporozoites are treated three hours later with a single i.v. injection of the compounds. This test enables the casual prophylactic activity of the compounds, that is the dose enabling 50% of the infected animals to be cured (CPD50), to be defined. The dose is always expressed as mg of PQ diphosphate per kg.
as §1, with “berghei” for “berchei”

[4] = test system: man; details: human, in vivo, cited from earlier work
[5] = Stability at room temperature; type: physicochemical; details: for Stability at room temp. under inert atmosphere: argon
[6] = single i.v. three hours after sporozoites, mg PQ diphosphate equivalent/kg

SMILES	Clinical effectiveness [1]	Hemolytic effect [2]	Hemolysis (% of total hemoglobin concentration) ([2]; 10 mM, 1 hour, 37° C., 60 min, 10000 µM)	ED50 [3]	ED100 [3]	minimal effective dose [3]	PQ index [3]	CPD50, causal prophylactic dose curing 50% of the infected and treated animals [3, 6]	ED100, totally curative dose [3, 6]	Toxic effects (words) [4]	Toxic effects (words) ([4]; listed as primaquine)	ED50 [3, 6]	ED100 [3, 6]	minimal effective dose [3, 6]	CPD50, fold lower than for PQ [3]	Activity compared with PQ ([3]; mouse, in vivo)	Stability at room temp. and in the air [5]	Stability at room temp. under inert atmosphere [5]	Activity relative to PQ, fold as active ([3]; model of malaria in mice)
COc1cc(NC(C)CCCN)c2ncccc2c1 (stereo not shown) [Primaquine, 6-methoxy-8-(4-amino-1-methylbutylamino)quinoline, reference compound]	clinically effective	concentration-dependent hemolytic effect	4.7 (1.7) %	18.8 mg/kg	~54 mg/kg	6.5 mg/kg	1.00	18.8 (1.3) mg/kg	TOX	destabilizes the red cell membrane, inducing a hemolysis	hemolysis; also recorded: Methemoglobinuria and gastrointestinal disorders as well as certain effects on the central nervous system								
COc1cc(NC(C)CCCNC(=O)CC[C@H](N)C(=O)O)c2ncccc2c1 (stereo partly drawn) [gGLU-PQ, N-(γ-L-glutamyl)primaquine]							2.15	8.7 (0.7) mg/kg	24.2 (9.8) mg/kg			8.7 mg/kg	24 mg/kg	3.2 mg/kg	22 -fold	at least twice as active as PQ	unstable	stable	
COc1cc(NC(C)CCCNC(=O)[C@@H]2CCC(=O)N2)c2ncccc2c1 (stereo partly drawn) [pGLU-PQ, N-(α-L-pyroglutamyl)primaquine]							1.87	10.0 (0.7) mg/kg	21.8 (5.7) mg/kg			10 mg/kg	22 mg/kg	4.6 mg/kg	1.9 -fold		unstable	stable	at least 1.9 -fold
